Reference: US12552783B2, “Modulators of proteolysis and associated methods of use” (Arvinas Operations, Inc., priority 2018, dated 2026)

Biological target: KRas (Homo sapiens, UniProt P01116, G12C)
Test: KRas degradation in NCI-H2030 cells by Western blot, normalized to GAPDH (data of Table 14)
Type: cell-based
Set-up: host or cells: NCI-H2030
Conditions: for Percent Degradation at Indicated Concentration (μM): H2030; for Dmax: NCI-H2030
Description: Cell Lines, Antibodies, and Reagents. NCI-H2030 (CRL-5914) and SW1573 (CRL-2170) cells were purchased from ATCC. Both cell lines are homozygous for the G12C mutation in KRas. NCI-H2030 cells were cultured in RPMI-1640 medium containing 1% penicillin-streptomycin and 10% fetal bovine serum (FBS). SW1573 cells were cultured in DMEM containing 1% penicillin-streptomycin and 10% FBS. The KRas detection antibody (Cat. No. LS-C175665) was purchased from LifeSpan Biosciences and was used at a dilution of 1:2000. GAPDH was detected using an antibody purchased from Cell Signaling Technology (Cat. No. 5174) and was diluted 1:3000. Secondary anti-mouse and anti-rabbit detection antibodies were purchased from Cell Signaling Technology (Cat. Nos. 7076 and 7074, respectively).
Compound Treatment and Western Blotting of the Data of Table 14. Either NCI-H2030 or SW1573 cells were plated in 12-well plates and allowed to adhere overnight at 37° C. in an incubator containing 5% CO2. The following day, the medium was replaced with the appropriate medium lacking FBS to induce starvation. Cells were returned to the incubator for an additional 24 hours following media exchange. […] Cells were treated with VHL-based compounds for 24 hours and all other compounds for 72 hours. Following treatment, cells were lysed in RIPA buffer (Thermo Fisher Cat. No. 89900) containing phosphatase (Thermo Fisher Cat. No. 1861277) and protease (Thermo Fisher Cat. No. 78429) inhibitor cocktails. Lysates were cleared at 13,000 rpm for 15 minutes and supernatants were assayed for total protein concentration using the Pierce BCA assay system (Thermo Fisher Cat. No. 23225). For each sample, 10 μg total protein was resolved on a 12% Bis-Tris gel and then transferred to a nitrocellulose membrane. After blocking in 3% BSA in TBST (Tris-buffered Saline with 0.1% Tween-20) for 1 hour at room temperature, membranes were probed with the primary antibody (LS Bio Cat. No. LS-C175665) overnight at 4° C. After incubation with the secondary antibody, the following day membranes were visualized using the SuperSignal™ West Femto substrate (Thermo Fisher Cat. No. 34095). The KRas signal in each lane was normalized to GAPDH and percent degradation was either estimated as less than 25% by visual inspection (C in Table 13) or quantitated relative to the DMSO control lane using BIO-RAD Image Lab 5.2.1, and all data was plotted using GraphPad PRISM 6.07.
DC50 is the half-maximal degradation concentration—i.e., the concentration at which 50% degradation is observed. DMax is the maximum degradation efficacy is achieved—i.e., the maximal degradation observed) degradation data.

Row | Compound | Percent Degradation at Indicated Concentration (μM) (0.3 μM) | Percent Degradation at Indicated Concentration (μM) (1 μM) | Percent Degradation at Indicated Concentration (μM) (3 μM) | Dmax
1 | C=CC(=O)N1CCN(c2nc(NCCC(=O)N(C)CCOCCOc3cc(-c4scnc4C)ccc3CNC(=O)[C@@H]3C[C@@H](O)CN3C(=O)[C@@H](c3cc(C)no3)C(C)C)nc3c(F)c(-c4c(O)cccc4F)c(Cl)cc23)CC1 (atropisomer, axis not shown) [compound 128, (25,4R)-N-(2-(2-(2-(3-(((S)-4-(4-acryloylpiperazin-1-yl)-6-chloro-8-fluoro-7-(2-fluoro-6-hydroxyphenyl)quinazolin-2-yl)amino)-N-methylpropanamido)ethoxy)ethoxy)-4-(4-methylthiazol-5-yl)benzyl)-4-hydroxy-1-((R)-3-methyl-2-(3-methylisoxazol-5-yl)butanoyl)pyrrolidine-2-carboxamide] | C (Percent Degradation: C ≤ 35) | C (Percent Degradation: C ≤ 35) | C (Percent Degradation: C ≤ 35) | ≤ 35%
2 | C=CC(=O)N1CCN(c2nc(NCCC(=O)N(C)CCOCCOCCOc3cc(-c4scnc4C)ccc3CNC(=O)[C@@H]3C[C@@H](O)CN3C(=O)[C@H](c3cc(C)no3)C(C)C)nc3c(F)c(-c4c(O)cccc4F)c(Cl)cc23)CC1 (atropisomer, axis not shown) [compound 130, (25,4R)-N-(2-(2-(2-(2-(3-(((S)-4-(4-acryloylpiperazin-1-yl)-6-chloro-8-fluoro-7-(2-fluoro-6-hydroxyphenyl)quinazolin-2-yl)amino)-N-methylpropanamido)ethoxy)ethoxy)ethoxy)-4-(4-methylthiazol-5-yl)benzyl)-4-hydroxy-1-((S)-3-methyl-2-(3-methylisoxazol-5-yl)butanoyl)pyrrolidine-2-carboxamide] | C (Percent Degradation: C ≤ 35) | C (Percent Degradation: C ≤ 35) | C (Percent Degradation: C ≤ 35) | ≤ 35%
3 | C=CC(=O)N1CCN(c2nc(NCCC(=O)N(C)CCOCCOCCOCCOc3cc(-c4scnc4C)ccc3CNC(=O)[C@@H]3C[C@@H](O)CN3C(=O)[C@H](c3cc(C)no3)C(C)C)nc3c(F)c(-c4c(O)cccc4F)c(Cl)cc23)CC1 (atropisomer, axis not shown) [compound 131, (2S,4R)-N-(2-((15-(((S)-4-(4-acryloylpiperazin-1-yl)-6-chloro-8-fluoro-7-(2-fluoro-6-hydroxyphenyl)quinazolin-2-yl)amino)-12-methyl-13-oxo-3,6,9-trioxa-12-azapentadecyl)oxy)-4-(4-methylthiazol-5-yl)benzyl)-4-hydroxy-1-((S)-3-methyl-2-(3-methylisoxazol-5-yl)butanoyl)pyrrolidine-2-carboxamide] | C (Percent Degradation: C ≤ 35) | C (Percent Degradation: C ≤ 35) | C (Percent Degradation: C ≤ 35) | ≤ 35%
4 | C=CC(=O)N1CCN(c2nc(NCCC(=O)N(C)CCOCCOCCOCCOCCOc3cc(-c4scnc4C)ccc3CNC(=O)[C@@H]3C[C@@H](O)CN3C(=O)[C@H](c3cc(C)no3)C(C)C)nc3c(F)c(-c4c(O)cccc4F)c(Cl)cc23)CC1 (atropisomer, axis not shown) [compound 132, (25,4R)-N-(2-((18-(((S)-4-(4-acryloylpiperazin-1-yl)-6-chloro-8-fluoro-7-(2-fluoro-6-hydroxyphenyl)quinazolin-2-yl)amino)-15-methyl-16-oxo-3,6,9,12-tetraoxa-15-azaoctadecyl)oxy)-4-(4-methylthiazol-5-yl)benzyl)-4-hydroxy-1-((S)-3-methyl-2-(3-methylisoxazol-5-yl)butanoyl)pyrrolidine-2-carboxamide] | C (Percent Degradation: C ≤ 35) | C (Percent Degradation: C ≤ 35) | C (Percent Degradation: C ≤ 35) | ≤ 35%

The next lines start with the values.

Row | Percent Degradation at Indicated Concentration (μM) (0.3 μM) | Percent Degradation at Indicated Concentration (μM) (1 μM) | Percent Degradation at Indicated Concentration (μM) (3 μM) | Dmax | Compound
5 | C (Percent Degradation: C ≤ 35) | C (Percent Degradation: C ≤ 35) | C (Percent Degradation: C ≤ 35) | ≤ 35% | C=CC(=O)N1CCN(c2nc(NCCC(=O)N(C)CCOc3cc(-c4scnc4C)ccc3CNC(=O)[C@@H]3C[C@@H](O)CN3C(=O)[C@H](c3cc(C)no3)C(C)C)nc3c(F)c(-c4c(O)cccc4F)c(Cl)cc23)CC1 (atropisomer, axis not shown) [compound 127, (25,4R)-N-(2-(2-(3-(((S)-4-(4-acryloylpiperazin-1-yl)-6-chloro-8-fluoro-7-(2-fluoro-6-hydroxyphenyl)quinazolin-2-yl)amino)-N-methylpropanamido)ethoxy)-4-(4-methylthiazol-5-yl)benzyl)-4-hydroxy-1-((S)-3-methyl-2-(3-methylisoxazol-5-yl)butanoyl)pyrrolidine-2-carboxamide]
6 | – | – | C (Percent Degradation: C ≤ 35) | – | C=CC(=O)N1CCN(c2nc(NCCC(=O)N(C)CCOCC(=O)N[C@H](C(=O)N3C[C@H](O)C[C@H]3C(=O)N[C@@H](C)c3ccc(-c4scnc4C)cc3)C(C)(C)C)nc3c(F)c(-c4c(O)cccc4F)c(Cl)cc23)CC1 (atropisomer, axis not shown) [compound 205, (2S,4R)-1-((S)-2-(2-(2-(3-(((S)-4-(4-acryloylpiperazin-1-yl)-6-chloro-8-fluoro-7-(2-fluoro-6-hydroxyphenyl)quinazolin-2-yl)amino)-N-methylpropanamido)ethoxy)acetamido)-3,3-dimethylbutanoyl)-4-hydroxy-N-((S)-1-(4-(4-methylthiazol-5-yl)phenyl)ethyl)pyrrolidine-2-carboxamide]
7 | C (Percent Degradation: C ≤ 35) | C (Percent Degradation: C ≤ 35) | C (Percent Degradation: C ≤ 35) | ≤ 35% | C=CC(=O)N1CCN(c2nc(NCCC(=O)N(C)CCOCC(=O)N[C@H](C(=O)N3C[C@H](O)C[C@H]3C(=O)N[C@@H](C)c3ccc(-c4scnc4C)cc3)C(C)(C)C)nc3c(F)c(-c4c(O)cccc4F)c(Cl)cc23)CC1 (atropisomer, axis not shown) [compound 206, (2S,4R)-1-((S)-2-(2-(2-(3-(((R)-4-(4-acryloylpiperazin-1-yl)-6-chloro-8-fluoro-7-(2-fluoro-6-hydroxyphenyl)quinazolin-2-yl)amino)-N-methylpropanamido)ethoxy)acetamido)-3,3-dimethylbutanoyl)-4-hydroxy-N-((S)-1-(4-(4-methylthiazol-5-yl)phenyl)ethyl)pyrrolidine-2-carboxamide]
8 | – | – | C (Percent Degradation: C ≤ 35) | – | C=CC(=O)N1CCN(c2nc(NCCC(=O)N(C)CCOCCOCC(=O)N[C@H](C(=O)N3C[C@H](O)C[C@H]3C(=O)N[C@@H](C)c3ccc(-c4scnc4C)cc3)C(C)(C)C)nc3c(F)c(-c4c(O)cccc4F)c(Cl)cc23)CC1 (atropisomer, axis not shown) [compound 207, (2S,4R)-1-((S)-15-(((S)-4-(4-acryloylpiperazin-1-yl)-6-chloro-8-fluoro-7-(2-fluoro-6-hydroxyphenyl)quinazolin-2-yl)amino)-2-(tert-butyl)-12-methyl-4,13-dioxo-6,9-dioxa-3,12-diazapentadecanoyl)-4-hydroxy-N-((S)-1-(4-(4-methylthiazol-5-yl)phenyl)ethyl)pyrrolidine-2-carboxamide]
